Assay results taken from patent US5440016A, “Peptides of the formula (KFmoc) ZZZ and their uses” (priority 1993, dated 1995).
Square brackets hold non-standard residues; d marks the D form. Ends that are not written are not given here. Peptide text beside a SMILES is read from it.

How the values were obtained:
[1] = test system: Human red blood cells (RBCs); assay: Hemolytic activity; type: cell-based; settings: at 100 μg/ml, Tables 22-23
[2] = test system: Escherichia coli ATCC 25922; settings: Tables 22-23
Description: (§1) Escherichia coli ATCC 25922 and P. aeruginosa ATCC 27853 were used as Gram-negative (-) and Staphylococcus aureus ATCC 29213 as Gram-positive (+) bacteria. Bacteria were grown overnight at 37° C. in Mueller-Hinton (MH) broth. This culture was reinoculated and incubated at 37° C. to reach the exponential phase of bacteria growth, i.e., a final bacterial suspension containing 10^5 to 5×10^5 colony-forming units (CFU)/ml. The concentration of cells was established by plating 100 μl of different dilutions of the culture solution (e.g., 10^-2, 10^-3 and 10^-4) onto solid agar plates.
(§2) Following an overnight incubation at 37° C., the CFU thus formed were counted on each agar plate. In 96-well tissue culture plates, as control blanks, eight wells per plate contained only medium, while as a positive growth control, eight other wells contained medium plus cells.
(§3) The plates were incubated overnight at 37° C., and the optical density (OD) determined at 620 nm after different times of incubation.

[3] = test system: Staphylococcus aureus ATCC 29213; settings: Tables 22-23
[4] = test system: Streptococcus sanguis ATCC 10556; settings: Tables 22-23
Description: Streptococcus sanguis ATCC 10556 (Gram-positive (+) bacteria present in tooth crevices) was grown overnight at 37° C. in Brain Heart Infusion (BHI) broth. This culture was reinoculated and incubated at 37° C. to reach the exponential phase of bacteria growth, i.e., a final bacterial suspension containing 10^5 to 5×10^5 colony-forming units (CFU)/ml. The concentration of cells was established by plating 100 μl of different dilutions of the culture solution (e.g., 10^-2, 10^-4) and 10^-4) onto solid agar plates. Following an overnight incubation at 37° C., the CFU thus formed were counted on each agar plate. In 96-well tissue culture plates, as control blanks, eight wells per plate contained only medium, while as a positive growth control, eight other wells contained medium plus cells. […] The plates were incubated overnight at 37° C., and the optical density (OD) determined at 620 nm after 20 to 24 hours incubation.

[5] = test system: Candida albicans ATCC 10231; settings: Tables 22-23
P. aeruginosa ATCC 27853 = assay: Antimicrobial assay, P. aeruginosa; settings: Tables 22-23
Description: as §1, §2, §3

[6] = target: T1, trypsin (from bovine pancreas) (Bos taurus, UniProt P00760); assay: Trypsin inhibition assay; type: biochemical; settings: trypsin concentration of 193 nM; substrate N-alpha-benzoyl-DL-arginine-p-nitroanilide; read-out: IC50, trypsin inhibiting activity
T1 construct: trypsin (from bovine pancreas, 8,600 units/mg solid); from tissue; host or cells: bovine pancreas
T1 sequence (P00760 24-246): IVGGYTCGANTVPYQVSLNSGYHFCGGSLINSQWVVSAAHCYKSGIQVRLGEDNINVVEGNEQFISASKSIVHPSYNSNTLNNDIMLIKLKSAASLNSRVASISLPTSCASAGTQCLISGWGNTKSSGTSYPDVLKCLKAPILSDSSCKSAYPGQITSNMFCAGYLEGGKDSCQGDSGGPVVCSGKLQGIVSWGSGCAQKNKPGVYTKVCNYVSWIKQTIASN
Description: The assay was performed in a 96-well assay plate, 15 μl trypsin (from bovine pancreas, 8,600 units/mg solid) solution (0.05 mg/ml 0.02 M HCl), 50 μl peptide solution (1 to 3 mM in water), and 100 μl 0.1 M Tris-buffer containing 25 mM CaCl2 (pH 7.8) were mixed in the wells of the assay plate. After incubation for 30 minutes, 100 μl substrate solution (N^α -benzoyl-DL-arginine-p-nitroanilide, 2.3 mM in water) was added. After 30 minutes, absorbances were read at 405 nm using a Titertek multichannel photometer, and expressed as a percentage of the control (well without peptide). The values obtained with serial dilutions of the peptide solutions were used to determine the IC50 values (concentration neccessary for 50% inhibition).

Compound | % hemolysis at 100 μg/ml [1] | IC50 (μg/ml) against E. coli [2] | IC50 (μg/ml) against S. aureus [3] | IC50 (μg/ml) against S. sanguis [4] | IC50 (μg/ml) against C. albicans [5] | IC50 (μg/ml) against P. aeruginosa (P. aeruginosa ATCC 27853) | IC50 [6]
CC(=O)N[C@@H](CCCNC(=N)N)C(=O)N[C@@H](CCCNC(=N)N)C(=O)N[C@@H](Cc1c[nH]c2ccccc12)C(=O)N[C@@H](Cc1c[nH]c2ccccc12)C(=O)N[C@@H](CS)C(=O)N[C@@H](CS)C(N)=O [Ac-RRWWCC-NH2] (Ac-RRWWCC-NH2) | 9.5% | 54 to 68 µg/mL | 47 to 63 µg/mL | 92 to 94 µg/mL | 162 to 166 µg/mL | 86 to 88 µg/mL | –
CC(=O)N[C@H](CCCNC(=N)N)C(=O)N[C@H](CCCNC(=N)N)C(=O)N[C@H](Cc1c[nH]c2ccccc12)C(=O)N[C@H](Cc1c[nH]c2ccccc12)C(=O)N[C@H](CS)C(=O)N[C@H](CCCNC(=N)N)C(N)=O [Ac-rrwwcr-NH2] (Ac-[dR][dR][dW][dW][dC][dR]-NH2) | 2.0% | 10 to 11 µg/mL | 9 to 13 µg/mL | 14 to 15 µg/mL | 68 to 78 µg/mL | 28 to 29 µg/mL | –
CC(=O)N[C@H](CCCNC(=N)N)C(=O)N[C@H](CCCNC(=N)N)C(=O)N[C@H](Cc1c[nH]c2ccccc12)C(=O)N[C@H](Cc1c[nH]c2ccccc12)C(=O)N[C@H](CS)C(=O)N[C@@H](C(N)=O)C(C)C [Ac-rrwwcv-NH2] (Ac-[dR][dR][dW][dW][dC][dV]-NH2) | 10.0% | 9 to 10 µg/mL | 16 to 19 µg/mL | 7 to 8 µg/mL | 107 to 119 µg/mL | 58 to 88 µg/mL | –
CC(=O)N[C@H](CCCNC(=N)N)C(=O)N[C@H](Cc1ccc(O)cc1)C(=O)N[C@H](CCCNC(=N)N)C(=O)N1CCC[C@@H]1C(=O)N[C@H](Cc1c[nH]c2ccccc12)C(=O)N[C@H](CS)C(N)=O [Ac-ryrpwc-NH2] (Ac-[dR][dY][dR][dP][dW][dC]-NH2) | – | – | – | – | – | – | 135 µM
CC(=O)N[C@H](CCCNC(=N)N)C(=O)N[C@H](Cc1ccc(O)cc1)C(=O)N[C@H](CCCNC(=N)N)C(=O)N1CCC[C@@H]1C(=O)N[C@H](Cc1c[nH]c2ccccc12)C(=O)N1CCC[C@@H]1C(N)=O [Ac-ryrpwp-NH2] (Ac-[dR][dY][dR][dP][dW][dP]-NH2) | – | – | – | – | – | – | 62 µM
CC(=O)N[C@H](CCCNC(=N)N)C(=O)N[C@H](Cc1ccc(O)cc1)C(=O)N[C@H](CCCNC(=N)N)C(=O)N1CCC[C@@H]1C(=O)N[C@H](Cc1c[nH]c2ccccc12)C(=O)N[C@@H](C(N)=O)[C@H](C)O [Ac-ryrpwt-NH2] (Ac-[dR][dY][dR][dP][dW][dT]-NH2) | – | – | – | – | – | – | 142 µM
Ac-RRWWCA-NH2 [Ac-RRWWCA-NH2] | 2.2% | 21 to 23 µg/mL | 35 to 40 µg/mL | 60 to 70 µg/mL | 193 to 210 µg/mL | 97 to 98 µg/mL | –
Ac-RRWWCD-NH2 [Ac-RRWWCD-NH2] | 0.3% | > 125 µg/mL | > 125 µg/mL | > 500 µg/mL | > 1000 µg/mL | > 500 µg/mL | –
Ac-RRWWCE-NH2 [Ac-RRWWCE-NH2] | 0.0% | > 125 µg/mL | > 125 µg/mL | > 500 µg/mL | 842 to 874 µg/mL | 149 µg/mL | –
Ac-RRWWCF-NH2 [Ac-RRWWCF-NH2] | 3.3% | 20 to 21 µg/mL | 10 to 14 µg/mL | 14 to 22 µg/mL | 70 to 97 µg/mL | 42 to 45 µg/mL | –
Ac-RRWWCG-NH2 [Ac-RRWWCG-NH2] | 1.9% | 22 to 23 µg/mL | 46 to 49 µg/mL | 47 to 66 µg/mL | 215 to 218 µg/mL | 200 µg/mL | –
Ac-RRWWCH-NH2 [Ac-RRWWCH-NH2] | 0.0% | 20 to 28 µg/mL | 26 to 28 µg/mL | 53 to 62 µg/mL | 69 to 107 µg/mL | 59 to 65 µg/mL | –
Ac-RRWWCI-NH2 [Ac-RRWWCI-NH2] | 8.3% | 29 to 33 µg/mL | 12 to 18 µg/mL | 17 to 18 µg/mL | 93 to 102 µg/mL | 40 to 70 µg/mL | –
Ac-RRWWCK-NH2 [Ac-RRWWCK-NH2] | 0.5% | 17 to 21 µg/mL | 17 to 18 µg/mL | 38 to 42 µg/mL | 100 to 110 µg/mL | 150 µg/mL | –
Ac-RRWWCM-NH2 [Ac-RRWWCM-NH2] | 15% | 23 to 27 µg/mL | 13 to 20 µg/mL | 13 to 22 µg/mL | 96 to 112 µg/mL | 93 to 103 µg/mL | –
Ac-RRWWCN-NH2 [Ac-RRWWCN-NH2] | 0.1% | 40 to 55 µg/mL | 98 to 125 µg/mL | 230 µg/mL | 222 to 227 µg/mL | 120 µg/mL | –
Ac-RRWWCP-NH2 [Ac-RRWWCP-NH2] | 0.0% | 19 to 27 µg/mL | 49 to 50 µg/mL | 190 µg/mL | 217 to 222 µg/mL | 200 µg/mL | –
Ac-RRWWCQ-NH2 [Ac-RRWWCQ-NH2] | 0.0% | 41 to 42 µg/mL | 52 to 98 µg/mL | 230 µg/mL | 223 to 230 µg/mL | 60 to 65 µg/mL | –
Ac-RRWWCR-NH2 [Ac-RRWWCR-NH2] | 0.0% | 12 to 18 µg/mL | 11 to 12 µg/mL | 22 to 45 µg/mL | 100 to 101 µg/mL | 87 to 130 µg/mL | –
Ac-RRWWCS-NH2 [Ac-RRWWCS-NH2] | 1.8% | 20 to 21 µg/mL | 41 to 44 µg/mL | 54 to 59 µg/mL | 211 to 213 µg/mL | 290 µg/mL | –
Ac-RRWWCT-NH2 [Ac-RRWWCT-NH2] | 0.5% | 24 to 28 µg/mL | 38 to 47 µg/mL | 56 to 61 µg/mL | 216 to 223 µg/mL | 180 µg/mL | –
Ac-RRWWCV-NH2 [Ac-RRWWCV-NH2] | 0.0% | 17 to 18 µg/mL | 19 to 21 µg/mL | 41 to 46 µg/mL | 103 to 174 µg/mL | 33 to 44 µg/mL | –
Ac-RRWWCW-NH2 [Ac-RRWWCW-NH2] | 14% | 58 to 61 µg/mL | 41 to 43 µg/mL | 55 to 78 µg/mL | 151 to 166 µg/mL | 60 to 88 µg/mL | –
Ac-RRWWCY-NH2 [Ac-RRWWCY-NH2] | 5.8% | 20 to 21 µg/mL | 12 to 28 µg/mL | 59 to 60 µg/mL | 184 to 212 µg/mL | 97 to 110 µg/mL | –
Cecropin A (KWKLFKKIEKVGQNIRDGIIKAGPAVAVVGQATQIAK; ends and bridges not checked; UniProt P01507 27-63, looked up) [reference compound] | 0.0% | 1 to 2 µg/mL | > 500 µg/mL | 337 to 400 µg/mL | 81 to 88 µg/mL | 5 to 6 µg/mL | –
